According to patent publication US20260356819A1, “OXOISOINDOLINYL-SUBSTITUTED […] DERIVATIVE AND USE THEREOF” (GLUETACS THERAPEUTICS (SHANGHAI) CO., LTD., priority 2023, published 2026):

Assays:
Type in all cases: cell-based
Conditions in all cases: compounds at 50 nM and 500 nM
IKZF2 = target: T1, IKZF2 (Homo sapiens, UniProt Q96SW2+Q9UKS7); assay: Western blot degradation of IKZF2 in hPBMCs (24 h)
T1 construct: The supernatant was aspirated as the extracted total cell protein; endogenous in cells; host or cells: human peripheral blood mononuclear cells (hPBMCs)
In short: (§1)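 Western blot densitometry after 24 h treatment of human PBMCs (1×10^6 cells/mL) with 50 nM or 500 nM compound. Remaining target (%) = band intensity over internal-control band, normalized to DMSO; degradation = 1 − remaining; DC50 is the concentration giving half the DMSO band signal.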

CK1α = target: T2, CK1α (Homo sapiens, UniProt P48729+Q96SW2); assay: Western blot degradation of CK1α in hPBMCs (24 h)
T2 construct: The supernatant was aspirated as the extracted total cell protein; endogenous in cells; host or cells: human peripheral blood mononuclear cells (hPBMCs)
In short: as §1

WEE1 = target: T3, WEE1 (Homo sapiens, UniProt P30291+Q96SW2); assay: Western blot degradation of WEE1 in hPBMCs (24 h)
T3 construct: The supernatant was aspirated as the extracted total cell protein; endogenous in cells; host or cells: human peripheral blood mononuclear cells (hPBMCs)
In short: as §1

IKZF1 = target: T4, IKZF1 (Homo sapiens, UniProt Q13422+Q96SW2); assay: Western blot degradation of IKZF1 in hPBMCs (24 h)
T4 construct: The supernatant was aspirated as the extracted total cell protein; endogenous in cells; host or cells: human peripheral blood mononuclear cells (hPBMCs)
In short: as §1

GSPT1 = target: T5, GSPT1 (Homo sapiens, UniProt P15170+Q96SW2); assay: Western blot degradation of GSPT1 in hPBMCs (24 h)
T5 construct: The supernatant was aspirated as the extracted total cell protein; endogenous in cells; host or cells: human peripheral blood mononuclear cells (hPBMCs)
In short: as §1

IKZF3 = target: T6, IKZF3 (Homo sapiens, UniProt Q96SW2+Q9UKT9); assay: Western blot degradation of IKZF3 in hPBMCs (24 h)
T6 construct: The supernatant was aspirated as the extracted total cell protein; endogenous in cells; host or cells: human peripheral blood mononuclear cells (hPBMCs)
In short: as §1

T4 sequence (Q13422 whole entry): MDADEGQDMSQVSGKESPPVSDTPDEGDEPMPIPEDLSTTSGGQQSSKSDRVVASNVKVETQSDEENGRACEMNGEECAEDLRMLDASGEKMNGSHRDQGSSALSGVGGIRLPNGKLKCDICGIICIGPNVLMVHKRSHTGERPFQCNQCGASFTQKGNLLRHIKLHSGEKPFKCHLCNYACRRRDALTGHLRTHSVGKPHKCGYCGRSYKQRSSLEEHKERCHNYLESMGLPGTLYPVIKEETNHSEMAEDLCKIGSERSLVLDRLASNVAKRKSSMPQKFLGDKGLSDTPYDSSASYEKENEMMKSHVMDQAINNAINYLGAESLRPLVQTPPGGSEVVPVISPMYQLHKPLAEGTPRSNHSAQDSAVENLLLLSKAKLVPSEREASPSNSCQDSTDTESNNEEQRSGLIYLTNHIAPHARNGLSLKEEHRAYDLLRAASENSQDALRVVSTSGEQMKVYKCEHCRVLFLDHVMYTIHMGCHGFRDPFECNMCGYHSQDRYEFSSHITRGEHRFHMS
T4 sequence (Q96SW2 whole entry): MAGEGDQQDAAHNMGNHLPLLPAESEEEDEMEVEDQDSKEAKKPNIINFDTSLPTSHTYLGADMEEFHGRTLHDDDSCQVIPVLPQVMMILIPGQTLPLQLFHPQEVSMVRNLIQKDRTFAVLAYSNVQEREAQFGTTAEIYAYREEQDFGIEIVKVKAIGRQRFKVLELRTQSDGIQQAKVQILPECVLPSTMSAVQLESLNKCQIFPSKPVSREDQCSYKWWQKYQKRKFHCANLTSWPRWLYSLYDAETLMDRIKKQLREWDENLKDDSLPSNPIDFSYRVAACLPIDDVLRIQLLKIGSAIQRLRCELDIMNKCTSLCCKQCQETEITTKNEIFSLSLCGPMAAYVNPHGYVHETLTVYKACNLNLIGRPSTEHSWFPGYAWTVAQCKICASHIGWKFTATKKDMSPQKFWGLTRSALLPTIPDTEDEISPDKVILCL
T4 sequence (Q16531 whole entry partner): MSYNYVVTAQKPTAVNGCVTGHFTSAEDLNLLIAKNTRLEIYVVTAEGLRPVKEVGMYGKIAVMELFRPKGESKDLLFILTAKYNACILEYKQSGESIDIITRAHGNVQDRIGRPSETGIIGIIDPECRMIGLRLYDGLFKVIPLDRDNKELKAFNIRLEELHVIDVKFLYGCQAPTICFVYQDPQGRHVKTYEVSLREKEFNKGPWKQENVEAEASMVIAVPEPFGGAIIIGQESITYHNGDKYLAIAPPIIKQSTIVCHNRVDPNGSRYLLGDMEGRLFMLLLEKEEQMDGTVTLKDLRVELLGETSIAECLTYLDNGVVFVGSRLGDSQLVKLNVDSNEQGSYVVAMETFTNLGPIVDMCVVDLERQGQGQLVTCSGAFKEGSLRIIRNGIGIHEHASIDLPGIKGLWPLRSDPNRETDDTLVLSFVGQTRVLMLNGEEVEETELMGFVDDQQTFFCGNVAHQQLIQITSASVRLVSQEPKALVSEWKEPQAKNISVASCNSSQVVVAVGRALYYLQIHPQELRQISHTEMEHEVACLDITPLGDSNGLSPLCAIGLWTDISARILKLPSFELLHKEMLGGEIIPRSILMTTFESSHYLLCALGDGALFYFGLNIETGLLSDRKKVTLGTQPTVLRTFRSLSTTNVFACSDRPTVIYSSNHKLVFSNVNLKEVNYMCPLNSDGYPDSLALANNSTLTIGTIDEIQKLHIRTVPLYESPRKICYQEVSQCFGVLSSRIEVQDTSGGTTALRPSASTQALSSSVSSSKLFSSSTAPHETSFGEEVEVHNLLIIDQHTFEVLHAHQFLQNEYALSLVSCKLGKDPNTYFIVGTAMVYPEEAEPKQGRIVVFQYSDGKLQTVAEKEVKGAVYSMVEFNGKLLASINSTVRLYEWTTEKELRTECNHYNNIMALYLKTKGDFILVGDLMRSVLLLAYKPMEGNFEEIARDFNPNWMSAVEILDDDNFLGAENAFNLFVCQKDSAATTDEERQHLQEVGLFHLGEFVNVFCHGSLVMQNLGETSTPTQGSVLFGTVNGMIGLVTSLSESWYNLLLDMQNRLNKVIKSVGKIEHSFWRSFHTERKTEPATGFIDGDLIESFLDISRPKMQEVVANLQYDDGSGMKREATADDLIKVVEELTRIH
T1 sequence (Q9UKS7 whole entry): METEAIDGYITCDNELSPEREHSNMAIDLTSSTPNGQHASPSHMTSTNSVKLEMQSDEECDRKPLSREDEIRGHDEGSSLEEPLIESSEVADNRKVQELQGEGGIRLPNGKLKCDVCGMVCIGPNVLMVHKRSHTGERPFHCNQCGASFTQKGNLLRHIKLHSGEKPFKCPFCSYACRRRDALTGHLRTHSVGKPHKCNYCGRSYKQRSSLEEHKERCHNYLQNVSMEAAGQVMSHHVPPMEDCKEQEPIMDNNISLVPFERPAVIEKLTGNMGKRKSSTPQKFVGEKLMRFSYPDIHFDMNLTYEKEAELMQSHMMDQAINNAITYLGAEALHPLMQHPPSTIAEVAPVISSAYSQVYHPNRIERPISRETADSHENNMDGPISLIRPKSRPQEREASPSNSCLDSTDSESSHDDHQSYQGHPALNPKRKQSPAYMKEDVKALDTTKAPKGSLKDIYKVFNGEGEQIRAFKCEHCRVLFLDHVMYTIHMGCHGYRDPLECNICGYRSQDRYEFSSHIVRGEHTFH
T1 sequence (Q96SW2 whole entry): as the sequence (Q96SW2 whole entry) above
T1 sequence (Q16531 whole entry partner): as the sequence (Q16531 whole entry partner) above
T5 sequence (P15170 whole entry): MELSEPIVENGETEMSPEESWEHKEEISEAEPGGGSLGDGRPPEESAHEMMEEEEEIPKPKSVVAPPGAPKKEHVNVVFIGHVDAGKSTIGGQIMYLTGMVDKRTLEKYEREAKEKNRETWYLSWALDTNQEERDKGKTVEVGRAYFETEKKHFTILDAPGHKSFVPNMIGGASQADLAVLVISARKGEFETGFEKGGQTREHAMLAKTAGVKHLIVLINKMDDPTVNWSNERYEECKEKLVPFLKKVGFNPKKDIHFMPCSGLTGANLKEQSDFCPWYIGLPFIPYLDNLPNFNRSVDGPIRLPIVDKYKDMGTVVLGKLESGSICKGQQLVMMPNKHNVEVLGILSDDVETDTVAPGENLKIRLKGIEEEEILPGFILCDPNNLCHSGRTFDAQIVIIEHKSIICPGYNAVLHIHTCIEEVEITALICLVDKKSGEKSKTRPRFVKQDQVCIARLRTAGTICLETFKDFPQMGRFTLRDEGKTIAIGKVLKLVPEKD
T5 sequence (Q96SW2 whole entry): as the sequence (Q96SW2 whole entry) above
T5 sequence (Q16531 whole entry partner): as the sequence (Q16531 whole entry partner) above
T3 sequence (P30291 whole entry): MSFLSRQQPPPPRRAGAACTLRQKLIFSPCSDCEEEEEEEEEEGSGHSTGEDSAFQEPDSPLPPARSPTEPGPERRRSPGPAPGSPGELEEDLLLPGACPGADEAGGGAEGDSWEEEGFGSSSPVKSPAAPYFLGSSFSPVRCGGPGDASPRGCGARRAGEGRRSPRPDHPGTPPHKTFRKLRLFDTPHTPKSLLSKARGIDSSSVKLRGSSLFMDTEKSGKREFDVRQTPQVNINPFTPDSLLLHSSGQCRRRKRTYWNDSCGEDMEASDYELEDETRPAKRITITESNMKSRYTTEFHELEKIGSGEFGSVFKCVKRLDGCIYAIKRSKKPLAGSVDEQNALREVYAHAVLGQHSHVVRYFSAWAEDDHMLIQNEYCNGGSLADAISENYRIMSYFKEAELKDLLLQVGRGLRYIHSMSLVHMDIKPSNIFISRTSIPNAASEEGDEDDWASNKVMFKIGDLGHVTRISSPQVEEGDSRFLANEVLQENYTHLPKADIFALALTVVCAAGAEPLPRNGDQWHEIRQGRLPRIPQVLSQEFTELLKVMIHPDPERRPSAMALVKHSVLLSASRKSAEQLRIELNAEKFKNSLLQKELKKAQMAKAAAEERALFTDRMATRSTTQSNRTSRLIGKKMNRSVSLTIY
T3 sequence (Q96SW2 whole entry): as the sequence (Q96SW2 whole entry) above
T3 sequence (Q16531 whole entry partner): as the sequence (Q16531 whole entry partner) above
T6 sequence (Q9UKT9 whole entry): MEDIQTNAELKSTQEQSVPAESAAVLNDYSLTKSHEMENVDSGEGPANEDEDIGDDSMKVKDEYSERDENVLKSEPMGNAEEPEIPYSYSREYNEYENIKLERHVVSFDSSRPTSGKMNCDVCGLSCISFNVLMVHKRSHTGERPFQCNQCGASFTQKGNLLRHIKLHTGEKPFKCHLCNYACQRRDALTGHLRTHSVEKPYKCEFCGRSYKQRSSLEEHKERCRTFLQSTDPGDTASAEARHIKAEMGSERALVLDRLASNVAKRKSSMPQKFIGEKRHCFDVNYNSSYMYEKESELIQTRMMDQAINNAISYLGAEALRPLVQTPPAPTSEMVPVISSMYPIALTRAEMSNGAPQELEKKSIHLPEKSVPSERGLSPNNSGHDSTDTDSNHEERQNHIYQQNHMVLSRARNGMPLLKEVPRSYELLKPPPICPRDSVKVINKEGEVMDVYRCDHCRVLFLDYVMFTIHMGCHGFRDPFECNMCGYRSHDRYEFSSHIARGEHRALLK
T6 sequence (Q96SW2 whole entry): as the sequence (Q96SW2 whole entry) above
T6 sequence (Q16531 whole entry partner): as the sequence (Q16531 whole entry partner) above

Row | Structure (SMILES) | IKZF2 substrate protein remaining % (IKZF2) | CK1α substrate protein remaining % (CK1α) | WEE1 substrate protein remaining % (WEE1) | IKZF1 substrate protein remaining % (IKZF1) | GSPT1 substrate protein remaining % (GSPT1) | IKZF3 substrate protein remaining % (IKZF3)
1 | Cc1nc(C2CCN(Cc3ccc4c(c3)C(=O)N(N3CCC(=O)NC3=O)C4=O)CC2)c2c(-c3ccccc3)csc2n1 [GT-08110, 2-(2,4-dioxotetrahydropyrimidin-1(2H)-yl)-5-((4-(2-methyl-5-phenylthieno[2,3-d]pyrimidin-4-yl)piperidin-1-yl)methyl)isoindoline-1,3-dione] | A (0% ≤ substrate protein remaining % ≤80%) | A (0% ≤ substrate protein remaining % ≤80%) | A (0% ≤ substrate protein remaining % ≤80%) | A (0% ≤ substrate protein remaining % ≤80%) | A (0% ≤ substrate protein remaining % ≤80%) | A (0% ≤ substrate protein remaining % ≤80%)
2 | Cc1nc(C2CCN(Cc3ccc4c(c3)C(=O)N(N3CCC(=O)NC3=O)C4=O)CC2)c2c3c(sc2n1)CCCC3 [GT-08111, 2-(2,4-dioxotetrahydropyrimidin-1(2H)-yl)-5-((4-(2-methyl-5,6,7,8-tetrahydrobenzo[4,5]thieno[2,3-d]pyrimidin-4-yl)piperidin-1-yl)methyl)isoindoline-1,3-dione] | B (80%< substrate protein remaining % ≤100%) | A (0% ≤ substrate protein remaining % ≤80%) | B (80%< substrate protein remaining % ≤100%) | B (80%< substrate protein remaining % ≤100%) | A (0% ≤ substrate protein remaining % ≤80%) | B (80%< substrate protein remaining % ≤100%)
3 | O=C1CCN(N2Cc3cc(CN4CCC(c5ncnc6sc7c(c56)CCCC7)CC4)ccc3C2=O)C(=O)N1 [GT-08112, 1-(1-oxo-5-((4-(5,6,7,8-tetrahydrobenzo[4,5]thieno[2,3-d]pyrimidin-4-yl)piperidin-1-yl)methyl)isoindolin-2-yl)dihydropyrimidine-2,4(1H,3H)-dione] | B (80%< substrate protein remaining % ≤100%) | B (80%< substrate protein remaining % ≤100%) | B (80%< substrate protein remaining % ≤100%) | B (80%< substrate protein remaining % ≤100%) | A (0% ≤ substrate protein remaining % ≤80%) | B (80%< substrate protein remaining % ≤100%)
4 | O=C1CCN(N2Cc3cc(CN4CCC(c5ncnc6sc7c(c56)CCC7)CC4)ccc3C2=O)C(=O)N1 [GT-08113, 1-(5-((4-(6,7-dihydro-5H-cyclopenta[4,5]thieno[2,3-d]pyrimidin-4-yl)piperidin-1-yl)methyl)-1-oxoisoindolin-2-yl)dihydropyrimidine-2,4(1H,3H)-dione] | B (80%< substrate protein remaining % ≤100%) | A (0% ≤ substrate protein remaining % ≤80%) | B (80%< substrate protein remaining % ≤100%) | B (80%< substrate protein remaining % ≤100%) | A (0% ≤ substrate protein remaining % ≤80%) | B (80%< substrate protein remaining % ≤100%)
5 | Cc1nc(C2CCN(Cc3ccc4c(c3)CN(N3CCC(=O)NC3=O)C4=O)CC2)c2c3c(sc2n1)CCC3 [GT-08114, 1-(5-((4-(2-methyl-6,7-dihydro-5H-cyclopenta[4,5]thieno[2,3-d]pyrimidin-4-yl)piperidin-1-yl)methyl)-1-oxoisoindolin-2-yl)dihydropyrimidine-2,4(1H,3H)-dione] | B (80%< substrate protein remaining % ≤100%) | B (80%< substrate protein remaining % ≤100%) | B (80%< substrate protein remaining % ≤100%) | B (80%< substrate protein remaining % ≤100%) | A (0% ≤ substrate protein remaining % ≤80%) | B (80%< substrate protein remaining % ≤100%)
6 | O=C1CCN(N2Cc3cc(CN4CCC(c5ncc6ccsc6n5)CC4)ccc3C2=O)C(=O)N1 [GT-08115, 1-(1-oxo-5-((4-(thieno[2,3-d]pyrimidin-2-yl)piperidin-1-yl)methyl)isoindolin-2-yl)dihydropyrimidine-2,4(1H,3H)-dione] | B (80%< substrate protein remaining % ≤100%) | A (0% ≤ substrate protein remaining % ≤80%) | B (80%< substrate protein remaining % ≤100%) | B (80%< substrate protein remaining % ≤100%) | A (0% ≤ substrate protein remaining % ≤80%) | B (80%< substrate protein remaining % ≤100%)
7 | O=C1CCN(N2Cc3cc(CN4CC=C(c5ncnc6sccc56)CC4)ccc3C2=O)C(=O)N1 [GT-08116, 1-(1-oxo-5-((4-(thieno[2,3-d]pyrimidin-4-yl)-3,6-dihydropyridin-1(2H)-yl)methyl)isoindolin-2-yl)dihydropyrimidine-2,4(1H,3H)-dione] | B (80%< substrate protein remaining % ≤100%) | A (0% ≤ substrate protein remaining % ≤80%) | A (0% ≤ substrate protein remaining % ≤80%) | A (0% ≤ substrate protein remaining % ≤80%) | A (0% ≤ substrate protein remaining % ≤80%) | A (0% ≤ substrate protein remaining % ≤80%)
8 | Cc1csc2ncnc(C3=CCN(Cc4ccc5c(c4)CN(N4CCC(=O)NC4=O)C5=O)CC3)c12 [GT-08117, 1-(5-((4-(5-methylthieno[2,3-d]pyrimidin-4-yl)-3,6-dihydropyridin-1(2H)-yl)methyl)-1-oxoisoindolin-2-yl)dihydropyrimidine-2,4(1H,3H)-dione] | B (80%< substrate protein remaining % ≤100%) | A (0% ≤ substrate protein remaining % ≤80%) | B (80%< substrate protein remaining % ≤100%) | B (80%< substrate protein remaining % ≤100%) | A (0% ≤ substrate protein remaining % ≤80%) | A (0% ≤ substrate protein remaining % ≤80%)
9 | O=C1CCN(N2Cc3cc(CN4CCC(c5cccc(F)c5F)CC4)ccc3C2=O)C(=O)N1 [GT-08194, 1-(5-((4-(2,3-difluorophenyl)piperidin-1-yl)methyl)-1-oxoisoindolin-2-yl)dihydropyrimidine-2,4(1H,3H)-dione] | B (80%< substrate protein remaining % ≤100%) | B (80%< substrate protein remaining % ≤100%) | B (80%< substrate protein remaining % ≤100%) | A (0% ≤ substrate protein remaining % ≤80%) | A (0% ≤ substrate protein remaining % ≤80%) | B (80%< substrate protein remaining % ≤100%)
10 | O=C1CCN(N2C(=O)c3ccc(CN4CCC(c5ncnc6sc7c(c56)CCCC7)CC4)cc3C2=O)C(=O)N1 [GT-08424, 2-(2,4-dioxotetrahydropyrimidin-1(2H)-yl)-5-((4-(5,6,7,8-tetrahydrobenzo[4,5]thieno[2,3-d]pyrimidin-4-yl)piperidin-1-yl)methyl)isoindoline-1,3-dione] | B (80%< substrate protein remaining % ≤100%) | A (0% ≤ substrate protein remaining % ≤80%) | B (80%< substrate protein remaining % ≤100%) | B (80%< substrate protein remaining % ≤100%) | A (0% ≤ substrate protein remaining % ≤80%) | B (80%< substrate protein remaining % ≤100%)
11 | O=C1CCN(N2C(=O)c3ccc(CN4CCC(c5ncc6ccsc6n5)CC4)cc3C2=O)C(=O)N1 [GT-08427, 2-(2,4-dioxotetrahydropyrimidin-1(2H)-yl)-5-((4-(thieno[2,3-d]pyrimidin-2-yl)piperidin-1-yl)methyl)isoindoline-1,3-dione] | A (0% ≤ substrate protein remaining % ≤80%) | B (80%< substrate protein remaining % ≤100%) | A (0% ≤ substrate protein remaining % ≤80%) | B (80%< substrate protein remaining % ≤100%) | B (80%< substrate protein remaining % ≤100%) | B (80%< substrate protein remaining % ≤100%)
12 | Cc1csc2ncnc(C3=CCN(Cc4ccc5c(c4)C(=O)N(N4CCC(=O)NC4=O)C5=O)CC3)c12 [GT-08428, 2-(2,4-dioxotetrahydropyrimidin-1(2H)-yl)-5-((4-(5-methylthieno[2,3-d]pyrimidin-4-yl)-3,6-dihydropyridin-1(2H)-yl)methyl)isoindoline-1,3-dione] | A (0% ≤ substrate protein remaining % ≤80%) | B (80%< substrate protein remaining % ≤100%) | A (0% ≤ substrate protein remaining % ≤80%) | B (80%< substrate protein remaining % ≤100%) | B (80%< substrate protein remaining % ≤100%) | A (0% ≤ substrate protein remaining % ≤80%)
